Laboratory results as given in PubChem BioAssay (NCI).
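Cells were grown in 96-well plates and exposed to each compound for 48 hours at five concentrations; endpoints were interpolated linearly between bracketing concentrations, or set to the highest concentration if not reached. The concentration for 50% growth inhibition is given as GI50. Definition used: TGI = concentration required for complete inhibition of growth.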

Legend:
Assay in all cases: NCI anticancer screen, dose series, 48 h
U251 CNS = test system: U251 CNS
KM12 colon = test system: KM12 colon
T-47D breast = test system: T-47D breast
A498 renal = test system: A498 renal
COLO 205 colon = test system: COLO 205 colon
SK-MEL-28 melanoma = test system: SK-MEL-28 melanoma
DU-145 prostate = test system: DU-145 prostate
SF-268 CNS = test system: SF-268 CNS
LOX IMVI melanoma = test system: LOX IMVI melanoma
HCC-2998 colon = test system: HCC-2998 colon
HOP-92 NSCLC = test system: HOP-92 NSCLC
IGROV1 ovarian = test system: IGROV1 ovarian
NCI-H226 lung = test system: NCI-H226 lung
SK-MEL-2 melanoma = test system: SK-MEL-2 melanoma
UACC-62 melanoma = test system: UACC-62 melanoma
NCI/ADR-RES ovarian = test system: NCI/ADR-RES ovarian
NCI-H23 lung = test system: NCI-H23 lung
SF-539 CNS = test system: SF-539 CNS
MALME-3M melanoma = test system: MALME-3M melanoma
OVCAR-8 ovarian = test system: OVCAR-8 ovarian
OVCAR-3 ovarian = test system: OVCAR-3 ovarian
K-562 leukemia = test system: K-562 leukemia
MCF7 breast = test system: MCF7 breast
A549 NSCLC = test system: A549 NSCLC
MOLT-4 leukemia = test system: MOLT-4 leukemia
SW-620 colon = test system: SW-620 colon
SNB-19 CNS = test system: SNB-19 CNS
HL-60(TB) leukemia = test system: HL-60(TB) leukemia
MDA-MB-231 breast = test system: MDA-MB-231 breast
NCI-H460 lung = test system: NCI-H460 lung
ACHN renal = test system: ACHN renal
BT-549 breast = test system: BT-549 breast
M14 melanoma = test system: M14 melanoma
EKVX NSCLC = test system: EKVX NSCLC
HT29 colon = test system: HT29 colon
RXF 393 renal = test system: RXF 393 renal
OVCAR-5 ovarian = test system: OVCAR-5 ovarian
HCT-116 colon = test system: HCT-116 colon
NCI-H522 lung = test system: NCI-H522 lung
SK-OV-3 ovarian = test system: SK-OV-3 ovarian
SK-MEL-5 melanoma = test system: SK-MEL-5 melanoma
SF-295 CNS = test system: SF-295 CNS
786-0 renal = test system: 786-0 renal
SNB-75 CNS = test system: SNB-75 CNS
CAKI-1 renal = test system: CAKI-1 renal
HS 578T breast = test system: HS 578T breast
CCRF-CEM leukemia = test system: CCRF-CEM leukemia
UO-31 renal = test system: UO-31 renal
SN12C renal = test system: SN12C renal
HOP-62 NSCLC = test system: HOP-62 NSCLC
OVCAR-4 ovarian = test system: OVCAR-4 ovarian
TK-10 renal = test system: TK-10 renal
RPMI-8226 leukemia = test system: RPMI-8226 leukemia
HCT-15 colon = test system: HCT-15 colon
PC-3 prostate = test system: PC-3 prostate
MDA-MB-435 = test system: MDA-MB-435

## O=C1CCC/C=C\C[C@H]2C=CC(=O)/C2=C/C[C@H](C/C=C\CC(F)(F)F)O1
U251 CNS
  GI50: 0.419 µM
  TGI: 1.75 µM
KM12 colon
  GI50: 0.299 µM
  TGI: 0.635 µM
T-47D breast
  GI50: 0.635 µM
  TGI: 2.86 µM
A498 renal
  GI50: 2.56 µM
  TGI: 4.89 µM
COLO 205 colon
  GI50: 0.368 µM
  TGI: 0.726 µM
SK-MEL-28 melanoma
  GI50: 0.571 µM
  TGI: 2.25 µM
DU-145 prostate
  GI50: 0.607 µM
  TGI: 2.33 µM
SF-268 CNS
  GI50: 0.522 µM
  TGI: 2.12 µM
LOX IMVI melanoma
  GI50: 0.288 µM
  TGI: 0.591 µM
HCC-2998 colon
  GI50: 0.384 µM
  TGI: 0.733 µM
HOP-92 NSCLC
  GI50: 1.85 µM
  TGI: 5.01 µM
IGROV1 ovarian
  GI50: 0.596 µM
  TGI: 1.98 µM
NCI-H226 lung
  GI50: 0.382 µM
  TGI: 1.01 µM
SK-MEL-2 melanoma
  GI50: 0.365 µM
  TGI: 1.19 µM
UACC-62 melanoma
  GI50: 0.28 µM
  TGI: 0.765 µM
NCI/ADR-RES ovarian
  GI50: 0.627 µM
  TGI: 16.7 µM
NCI-H23 lung
  GI50: 0.698 µM
  TGI: 3.67 µM
SF-539 CNS
  GI50: 0.676 µM
  TGI: 3.08 µM
MALME-3M melanoma
  GI50: 0.587 µM
  TGI: 2.29 µM
OVCAR-8 ovarian
  GI50: 0.423 µM
  TGI: 1.34 µM
OVCAR-3 ovarian
  GI50: 0.538 µM
  TGI: 1.75 µM
K-562 leukemia
  GI50: 0.503 µM
  TGI: 2.6 µM
MCF7 breast
  GI50: 0.336 µM
  TGI: 3.16 µM
A549 NSCLC
  GI50: 0.528 µM
  TGI: 2.38 µM
MOLT-4 leukemia
  GI50: 0.984 µM
  TGI: 7.51 µM
SW-620 colon
  GI50: 0.508 µM
  TGI: 2.05 µM
SNB-19 CNS
  GI50: 0.867 µM
  TGI: 3.71 µM
HL-60(TB) leukemia
  GI50: 0.495 µM
  TGI: 2.58 µM
MDA-MB-231 breast
  GI50: 0.722 µM
  TGI: 5.63 µM
NCI-H460 lung
  GI50: 0.508 µM
  TGI: 1.73 µM
ACHN renal
  GI50: 0.333 µM
  TGI: 0.629 µM
BT-549 breast
  GI50: 0.292 µM
  TGI: 0.659 µM
M14 melanoma
  GI50: 0.493 µM
  TGI: 1.7 µM
EKVX NSCLC
  GI50: 0.893 µM
  TGI: 3.42 µM
HT29 colon
  GI50: 0.352 µM
  TGI: 0.696 µM
RXF 393 renal
  GI50: 0.424 µM
  TGI: 1.4 µM
OVCAR-5 ovarian
  GI50: 0.67 µM
  TGI: 3.11 µM
HCT-116 colon
  GI50: 0.311 µM
  TGI: 0.614 µM
NCI-H522 lung
  GI50: 0.257 µM
  TGI: 0.537 µM
SK-OV-3 ovarian
  GI50: 0.757 µM
  TGI: 3.02 µM
SK-MEL-5 melanoma
  GI50: 0.342 µM
  TGI: 0.78 µM
SF-295 CNS
  GI50: 0.401 µM
  TGI: 1.13 µM
786-0 renal
  GI50: 0.311 µM
  TGI: 0.677 µM
SNB-75 CNS
  GI50: 0.806 µM
  TGI: 3.22 µM
CAKI-1 renal
  GI50: 0.417 µM
  TGI: 1.28 µM
HS 578T breast
  GI50: 1.17 µM
  TGI: 9.68 µM
CCRF-CEM leukemia
  GI50: 0.465 µM
  TGI: 1.71 µM
UO-31 renal
  GI50: 0.298 µM
  TGI: 0.624 µM
SN12C renal
  GI50: 0.492 µM
  TGI: 2.04 µM
HOP-62 NSCLC
  GI50: 0.333 µM
  TGI: 0.757 µM
OVCAR-4 ovarian
  GI50: 0.571 µM
  TGI: 2.5 µM
TK-10 renal
  GI50: 0.618 µM
  TGI: 2.17 µM
RPMI-8226 leukemia
  GI50: 0.275 µM
  TGI: 0.858 µM
HCT-15 colon
  GI50: 0.316 µM
  TGI: 0.867 µM
PC-3 prostate
  GI50: 0.574 µM
  TGI: 2.71 µM
MDA-MB-435
  GI50: 0.449 µM
  TGI: 1.42 µM
